Reference: patent publication US12612412B2, “Antiviral heterocyclic compounds” (Enanta Pharmaceuticals, Inc., priority 2021, dated 2026)
Like-named read-outs stand apart in the source and are kept apart here.

Tests used:
[1] = tested on: HMPV clinical isolate TN/1501/A1; assay: HMPV antiviral assay Method-B (clinical isolate TN/1501/A1 in LLC-MK2 cells, ATP-Lite readout); type: cell-based, Human metapneumovirus (HMPV); details: hMPV WT1501 (clinical isolate TN/1501/A1), 6 days
Summary of the method: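 EC50 derived by four-parameter logistic fit of percent cell health, measured by ATP-Lite luminescence and normalised to virus-only and uninfected-cell controls. Compounds run in duplicate from 10 μM top, 3-fold, 10 points. Infection: LLC-MK2 cells, MOI 0.014, 2 μg/mL final TPCK-trypsin, serum-free, 6 days at 37° C.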

[2] = tested on: genotype A, "Long" strain RSV; assay: RSV-A assay (CPE protection in Hep-2 cells, ATPlite readout); type: cell-based, Human respiratory syncytial virus (HRSV); details: human respiratory syncytial virus, MOI 0.1, CPE protection
Summary of the method: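 Hep-2 cells (8,000/well) were treated with 2-fold serial compound dilutions in duplicate and infected with RSV at MOI 0.1. After 5 days, protection from cytopathic effect was measured as cell viability by ATPlite luminescence, and EC50 values were derived.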

[3] = human metapneumovirus, LLC-MK2, 144 h
[4] = genotype A “Long” strain RSV, read-out: Human RSV-A (“Long”)
[5] = RSV-A Long strain, read-out: Human RSV-A (“Long”) EC50

SMILES | EC50 [1, 3] | EC50 [2, 4] | EC50 [2, 5] | EC50 [1]
COc1cc(C(=O)NC[C@](O)(c2cc3c(c(-c4cc(Cl)c(F)cc4F)n2)OC[C@]3(C)C(N)=O)C2CC2)cc2cc(Br)cnc12 [Example 664] | < 0.5 µM | < 0.2 µM |  | 
Cc1cnc2c(OC(F)(F)F)cc(C(=O)NC[C@](O)(c3cc4c(c(-c5ccc(F)c(Cl)c5)n3)OC[C@]4(C)C(N)=O)C3CC3)cc2c1 [Example 503] | < 0.5 µM | < 0.2 µM |  | 
COc1cc(C(=O)NC[C@](O)(c2cc3c(c(-c4ccc5c(c4)OC(F)(F)O5)n2)OC[C@]3(C)C(N)=O)C2(F)CC2)cc2cn(C(F)F)nc12 [Example 720] | < 0.5 µM | < 0.2 µM |  | 
C[C@]1(C(N)=O)COc2c1cc([C@@](O)(CNC(=O)c1cc(F)c3nc(C4CC4)cn3c1)C1CC1)nc2-c1ccc2c(c1)OC(F)(F)O2 [Example 549] | < 0.5 µM | < 0.2 µM |  | 
C[C@]1(C(N)=O)COc2c1cc([C@@](O)(CNC(=O)c1cc(OCCF)c3nn(C4(F)CC4)cc3c1)C(F)(F)F)nc2-c1csc2c(F)cccc12 [Example 612] | < 0.5 µM | < 0.2 µM |  | 
COc1cc(C(=O)NC[C@](O)(c2cc3c(c(-c4cc(F)c(F)cc4Cl)n2)OC[C@]3(C)C(N)=O)C2CC2)cc2cn(C(F)F)nc12 [Example 658] | < 0.5 µM | < 0.2 µM |  | 
Cc1cnc2c(OC(F)F)cc(C(=O)NC[C@](O)(c3cc4c(c(-c5ccc(F)cc5)n3)OC[C@]4(C)C(N)=O)C3(F)CC3)cc2c1 [Example 710] | < 0.5 µM | < 0.2 µM |  | 
Cc1cnc2c(OCC(F)F)cc(C(=O)NC[C@](O)(c3cc4c(c(-c5ccc(F)cc5)n3)OC[C@]4(C)C(N)=O)C3CC3)cc2c1 [Example 498] | < 0.5 µM | < 0.2 µM |  | 
C[C@]1(C(N)=O)COc2c1cc([C@@](O)(CNC(=O)c1cc(F)c3nc(N)sc3c1)C1CC1)nc2-c1ccc(F)c(Cl)c1 [Example 704] | < 0.5 µM | < 0.2 µM |  | 
COc1cc(C(=O)NC[C@](O)(c2cc3c(c(-c4ccc(Cl)cc4)n2)OC[C@]3(C)C(N)=O)C(F)(F)F)cc2cn(C(F)F)nc12 [Example 586] | > 0.5 µM | < 0.2 µM |  | 
COc1cc(C(=O)NC[C@](O)(c2cc3c(c(-c4cc(Cl)ccc4F)n2)OC[C@]3(C)C(N)=O)C2CC2)cc2cn(C3CC3)nc12 [Example 536] | < 0.5 µM | < 0.2 µM |  | 
COc1cc(C(=O)NC[C@](O)(c2cc3c(c(-c4ccc(F)cc4)n2)OC[C@]3(C)C(N)=O)C(F)(F)F)cc2c(F)n(C3CC3)nc12 [Example 649] | > 0.5 µM | < 0.2 µM |  | 
COc1cc(C(=O)NC[C@](O)(c2cc3c(c(-c4ccc(C#N)c(Cl)c4)n2)OC[C@]3(C)C(N)=O)C(F)(F)F)cc2cc(Cl)c(C)nc12 [Example 578] | > 0.5 µM | < 0.2 µM |  | 
COc1cc(C(=O)NC[C@](O)(c2cc3c(c(-c4ccc(F)cc4Cl)n2)OC[C@]3(C)C(N)=O)C(F)(F)F)cc2cn(C(F)F)nc12 [Example 529] | < 0.5 µM | < 0.2 µM |  | 
COc1cc(C(=O)NC[C@](O)(c2cc3c(c(-c4ccc(F)c(C)c4)n2)OC[C@]3(C)C(N)=O)C(F)(F)F)cc2cn(C3CC3)nc12 [Example 636] | < 0.5 µM | < 0.2 µM |  | 
COc1cc(C(=O)NC[C@](O)(c2cc3c(c(-c4csc5c(F)cccc45)n2)OC[C@]3(C)C(N)=O)C(F)(F)F)cc2cc(C3CC3)nn12 [Example 598] | < 0.5 µM | < 0.2 µM |  | 
COc1cc(C(=O)NC[C@](O)(c2cc3c(c(-c4csc5c(F)cccc45)n2)OC[C@]3(C)C(N)=O)C2CC2)cc2cn(C3CC3)nc12 [Example 593] | < 0.5 µM | < 0.2 µM |  | 
COc1cc(C(=O)NC[C@](O)(c2cc3c(c(-c4ccc(F)cc4)n2)OC[C@]3(C)C(N)=O)C2CCC2)cc2cn(C3(F)CC3)nc12 [Example 726] | < 0.5 µM | < 0.2 µM |  | 
C[C@]1(C(N)=O)COc2c1cc([C@@](O)(CNC(=O)c1cc(Cl)c3nn(C4CC4)cc3c1)C(F)(F)F)nc2-c1csc2c(F)cccc12 [Example 609] | < 0.5 µM | < 0.2 µM |  | 

More lines, now with the values ahead:

EC50 [1, 3] | EC50 [2, 4] | EC50 [2, 5] | EC50 [1] | SMILES
> 0.5 µM |  | > 0.2 µM |  | Cc1cnc2c(OC(F)F)cc(C(=O)NC[C@](O)(c3cc4c(c(-c5ccc6c(c5)OC(F)(F)O6)n3)OC[C@]4(C(N)=O)C(F)F)C3CC3)cc2c1 [Example 1020]
< 0.5 µM | < 0.2 µM |  |  | COc1cc(C(=O)NC[C@](O)(c2cc3c(c(-c4ccc(F)c(F)c4F)n2)OC[C@]3(C)C(N)=O)C2(F)CC2)cc2cc(Cl)c(C)nc12 [Example 731]
< 0.5 µM |  | < 0.2 µM |  | COc1cc(C(=O)NC[C@](O)(c2cc3c(c(-c4cccc(Br)c4F)n2)OC[C@]3(C)C(N)=O)C2CC2)cc2cc(Cl)c(C)nc12 [Example 1092]
< 0.5 µM |  | < 0.2 µM |  | C[C@]1(C(N)=O)COc2c1cc([C@@](O)(CNC(=O)c1cc(Cl)c3nn(C4(F)CC4)cc3c1)C1CC1)nc2-c1ccc2c(c1)OC(F)(F)O2 [Example 849]
< 0.5 µM |  | < 0.2 µM |  | C[C@]1(C(N)=O)COc2c1cc([C@@](O)(CNC(=O)c1cc(Cl)c3nn(C4CC4)cc3c1)C(F)(F)F)nc2-c1cccc(F)c1Cl [Example 1119]
< 0.5 µM | < 0.2 µM |  |  | COc1cc(C(=O)NC[C@](O)(c2cc3c(c(-c4ccc(F)cc4)n2)OC[C@]3(C)C(N)=O)C2CC2)cc2sc(C3CC3)nc12 [Example 741]
> 0.5 µM |  | > 0.2 µM |  | Cc1cnc2c(OC(F)F)cc(C(=O)NC[C@](O)(c3cc4c(c(-c5ccc(F)cc5)n3)OC[C@]4(C(N)=O)C(F)F)C3CC3)cc2c1 [Example 1026]
 |  | < 0.2 µM | < 0.5 µM | COc1cc(C(=O)NC[C@](O)(c2cc3c(c(-c4cc(Br)c(F)cc4F)n2)OC[C@]3(C)C(N)=O)C(F)(F)F)cc2cn(C3CC3)nc12 [Example 1223]
< 0.5 µM |  | < 0.2 µM |  | COc1cc(C(=O)NC[C@](O)(c2cc3c(c(-c4ccc5c(c4)OCO5)n2)OC[C@]3(C)C(N)=O)C(F)(F)F)cc2cn(C3CC3)nc12 [Example 908]
> 0.5 µM |  | > 0.2 µM |  | COc1cc(C(=O)NC[C@](O)(c2cc3c(c(-c4ccc(F)c(Cl)c4)n2)OC[C@]3(C(N)=O)C(F)F)C2CC2)cc2cc(Cl)c(C)nc12 [Example 1032]
> 0.5 µM |  | < 0.2 µM |  | COc1cc(C(=O)NC[C@](O)(c2cc3c(c(-c4ccc(OC(F)(F)F)cc4)n2)OC[C@]3(C)C(N)=O)C(F)(F)F)cc2cn(C3CC3)nc12 [Example 898]
< 0.5 µM |  | < 0.2 µM |  | C[C@]1(C(N)=O)COc2c1cc([C@@](O)(CNC(=O)c1cc(Cl)c3nn(C4CC4)cc3c1)C1CC1)nc2-c1cccc(F)c1Cl [Example 1123]
< 0.5 µM |  | < 0.2 µM |  | COc1cc(C(=O)NC[C@](O)(c2cc3c(c(-c4ccc(F)c(Cl)c4)n2)OC[C@]3(CF)C(N)=O)C(F)(F)F)cc2cc(Cl)c(C)nc12 [Example 1047]
> 0.5 µM |  | < 0.2 µM |  | COc1cc(-c2nc([C@@](O)(CNC(=O)c3cc(OC)c4nn(C5CC5)cc4c3)C(F)(F)F)cc3c2OC[C@]3(C)C(N)=O)ccc1F [Example 914]
< 0.5 µM |  | < 0.2 µM |  | COc1cc(C(=O)NC[C@](O)(c2cc3c(c(-c4ccc(F)cc4)n2)OC[C@@]3(C(N)=O)C(F)F)C(F)(F)F)cc2cc(Cl)c(C)nc12 [Example 1001]
< 0.5 µM |  | < 0.2 µM |  | COc1cc(C(=O)NC[C@](O)(c2cc3c(c(-c4ccc5c(c4)OC(F)(F)O5)n2)OC[C@]3(C)C(N)=O)C(F)(F)F)cc2cn(C3(F)CC3)nc12 [Example 837]
< 0.5 µM | < 0.2 µM |  |  | COc1cc(C(=O)NC[C@](O)(c2cc3c(c(-c4ccc5c(c4)OC(F)(F)O5)n2)OC[C@]3(C)C(N)=O)C(F)(F)F)cc2cc(C)nnc12 [Example 764]
< 0.5 µM | < 0.2 µM |  |  | COc1cc(C(=O)NC[C@](O)(c2cc3c(c(-c4ccc(F)c(Br)c4F)n2)OC[C@]3(C)C(N)=O)C2CC2)cc2cn(C(F)F)nc12 [Example 801]
< 0.5 µM | < 0.2 µM |  |  | COc1cc(C(=O)NC[C@](O)(c2cc3c(c(-c4ccc(F)c(F)c4Cl)n2)OC[C@]3(C)C(N)=O)C(F)(F)F)cc2cn(C3(F)CC3)nc12 [Example 775]
< 0.5 µM |  | < 0.2 µM |  | COc1cc(C(=O)NC[C@](O)(c2cc3c(c(-c4cccc(F)c4Cl)n2)OC[C@]3(C)C(N)=O)C2CC2)cc2cc(Br)cnc12 [Example 1124]
< 0.5 µM | < 0.2 µM |  |  | COc1cc(C(=O)NC[C@](O)(c2cc3c(c(-c4cc(Cl)c(F)cc4F)n2)OC[C@]3(C)C(N)=O)C2(F)CC2)cc2cc(Cl)c(C)nc12 [Example 760]
< 0.5 µM | < 0.2 µM |  |  | COc1cc(C(=O)NC[C@](O)(c2cc3c(c(-c4ccc(F)cc4)n2)OC[C@]3(C)C(N)=O)C2CC2)cc2cc(C3CC3)nnc12 [Example 763]
< 0.5 µM |  | < 0.2 µM |  | C[C@]1(C(N)=O)COc2c1cc([C@@](O)(CNC(=O)c1cc(Cl)c3nn(C4CC4)cc3c1)C1CC1)nc2-c1cc(Br)c(F)cc1F [Example 1096]
< 0.5 µM | < 0.2 µM |  |  | COc1cc(C(=O)NC[C@](O)(c2cc3c(c(-c4cc(Cl)ccc4F)n2)OC[C@]3(C)C(N)=O)C2(F)CC2)cc2cn(C3CC3)nc12 [Example 735]
> 0.5 µM |  | < 0.2 µM |  | C[C@]1(C(N)=O)COc2c1cc([C@@](O)(CNC(=O)c1cc(OCCF)c3nn(C4(F)CC4)cc3c1)C(F)(F)F)nc2-c1ccc(F)cc1 [Example 878]
< 0.5 µM |  | < 0.2 µM |  | Cc1cnc2c(OC(F)F)cc(C(=O)NC[C@](O)(c3cc4c(c(-c5ccc(F)cc5)n3)OC[C@@]4(C(N)=O)C(F)F)C3CC3)cc2c1 [Example 1027]
